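Growth conditions: 96-well plates. Treatment: test compound, 48 hours, 5 concentrations. Analysis: linear interpolation between bracketing concentrations; unreached endpoints set to highest concentration. GI50 = concentration required for 50% inhibition of growth.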 Calls of active or inactive are those of the source. Rule as the data show it: active = GI50 up to about 1.1 µM and inactive = higher.
Columns and labels:
Experiment in all cases: DTP human tumour cell line panel, 48 h
A549 = tested on: A549
SF-539 = tested on: SF-539
UACC-257 = tested on: UACC-257
SK-OV-3 = tested on: SK-OV-3
HT-29 = tested on: HT-29
LOX IMVI = tested on: LOX IMVI
SNB-19 = tested on: SNB-19
M14 = tested on: M14
NCI-H460 = tested on: NCI-H460
TK-10 = tested on: TK-10
MOLT-4 = tested on: MOLT-4
RXF 393 = tested on: RXF 393
NCI-H522 = tested on: NCI-H522
HOP-92 = tested on: HOP-92
K562 = tested on: K562
RPMI-8226 = tested on: RPMI-8226

Measured: GI50

C/C(=N/NC(N)=S)c1ccc2ccccc2c1
inactive: A549 24.4 µM | SF-539 17.1 µM | UACC-257 41.9 µM | SK-OV-3 21.9 µM | HT-29 19.7 µM | LOX IMVI 39.8 µM | SNB-19 83.2 µM | M14 11.8 µM | NCI-H460 24.2 µM | TK-10 74.6 µM | MOLT-4 21.9 µM | RXF 393 35.3 µM | NCI-H522 17.6 µM | HOP-92 > 100 µM

O=C(Cc1nc2ccc([N+](=O)[O-])cc2nc1O)C(=O)Nc1ccccc1[N+](=O)[O-]
inactive: A549 > 100 µM | SF-539 > 100 µM | UACC-257 > 100 µM | K562 > 100 µM | SK-OV-3 > 100 µM | HT-29 > 100 µM | LOX IMVI 60.7 µM | SNB-19 > 100 µM | M14 > 100 µM | NCI-H460 > 100 µM | TK-10 > 100 µM | MOLT-4 > 100 µM | RXF 393 > 100 µM | NCI-H522 20.3 µM | HOP-92 > 100 µM

COc1cccc(NC(=O)/C(CC(=O)CC(c2ccccc2)c2c(O)c3ccccc3oc2=O)=N\NC(C)(C)C)c1OC (centres undefined)
inactive: A549 87.7 µM | SF-539 34.5 µM | UACC-257 > 100 µM | K562 44.9 µM | SK-OV-3 > 100 µM | RPMI-8226 29.3 µM | LOX IMVI 36.9 µM | SNB-19 > 100 µM | M14 44.5 µM | NCI-H460 > 100 µM | TK-10 > 100 µM | MOLT-4 28.7 µM | HOP-92 17.6 µM

Cc1ccc(NC(=O)CSc2nnc(Cc3ccccc3)o2)c(C)c1
inactive: A549 > 100 µM | UACC-257 > 100 µM | K562 > 100 µM | SK-OV-3 > 100 µM | HT-29 > 100 µM | RPMI-8226 > 100 µM | LOX IMVI > 100 µM | SNB-19 > 100 µM | M14 > 100 µM | NCI-H460 > 100 µM | TK-10 > 100 µM | MOLT-4 > 100 µM | RXF 393 > 100 µM | NCI-H522 > 100 µM

CSc1nsc(-c2ccccc2)[s+]1.[O-][Cl+3]([O-])([O-])[O-]
inactive: A549 > 100 µM | SF-539 > 100 µM | UACC-257 > 100 µM | K562 64.1 µM | SK-OV-3 > 100 µM | RPMI-8226 > 100 µM | SNB-19 > 100 µM | M14 > 100 µM | NCI-H460 > 100 µM | TK-10 > 100 µM | MOLT-4 > 100 µM | RXF 393 > 100 µM | NCI-H522 > 100 µM

Source: ChEMBL document CHEMBL1201862, “PubChem BioAssay data set” (2004)
